Data on two compounds can be found in US8008354B2, “Death receptor sensitizing compounds and methods of use therefor” (Burnham Institute for Medical Research, priority 2006, dated 2011).

Test [1] has as its system PPC-1 cells. The test is described as follows: Nuclear fragmentation of suspension PPC-1 cells overexpressing FLIP, CrmA or BclXL. Particulars: 5809354 60 μM or staurosporine 0.5 μM, thirty hours. Type of test: cell-based, human. Here is the method: FIG. 15. 5809354 sensitizes cells to anoikis through a caspase 8 dependent mechanism. (A) PPC-1 cells (5×10^4) were cultured under suspension conditions overnight and then treated with 5809354 in the presence or absence of the pan-caspase inhibitor z-VAD-fink (100 μM). Thirty hours after incubation, anoikis was determined by flow cytometry to detect cell surface annexin V expression and PI uptake. Data represents the mean±SEM percent of viable cells or colonies compared to untreated controls. (B) PPC-1 cells (5×10^4) were cultured in suspension conditions overnight and then treated with 5809354 (60 μM). At increasing times after treatment, caspase activation was detected with FITC-labeled peptides that bind preferentially and irreversibly to caspase 3/7, 8, or 9. Caspase activation was monitored by flow cytometry to quantify the percentage of fluorescently labeled cells. […] At increasing times after incubation, total cellular protein was isolated and analyzed by SDS-PAGE immunoblotting using anti-caspase 8 and anti-actin antibodies. * indicates cleaved caspase 8. […] Thirty hours after incubation, apoptosis was measured by cell surface annexin V expression and PI uptake. […] Ten hours after incubation, cell viability was measured using the MTS assay. […] EGFP expression and nuclear morphology were analyzed by fluorescence microscopy. […]

Test [2] has as its system PPC-1 cells. The experiment in a line: MTS viability of adherent PPC-1 cells with or without CH-11, thirty hours. Type of test: cell-based, human. Particulars: CH-11 100 ng/mL. Here is the method: FIG. 13. Small molecule down-regulation of FLIP sensitizes prostate cancer cells to anoikis. (A) PPC-1 cells were seeded overnight in adherent conditions and then treated with increasing concentrations of 5809354 for 16 hours. After incubation, cells were harvested. Total cellular RNA was extracted and mRNA levels of the long isoform of FLIP (FLIPL), the short isoform of FLIP (FLIPS), or rRNA levels of 18S were detected by real-time RT-PCR. Data were normalized using the ΔΔCT method and expressed as the mean±SEM percent of […] expression relative to untreated controls. (B) PPC-1 cells were cultured and treated as in panel A. Total cellular protein was isolated and analyzed by SDS-PAGE immunoblotting using anti-FLIP and anti-Actin antibodies. […] Thirty hours after incubation, cell viability was determined using the MTS assay. […] After incubation, apoptosis was measured by flow cytometry to detect cell surface annexin V expression and PI. […] (E) Cells were harvested, fixed, stained with DAPI, and nuclear morphology analyzed by fluorescence microscopy. […] One week later, cells were stained with methylene blue and the number of colonies counted. […]
Cell viability apoptosis, colony formation, and caspase activation assays. Cell viability was assessed using the MTS reduction assay (Promega, Madison, Wis., USA) according to the manufacturer's protocols and as described in Schimmer et al. (2006). […]

On to `CN[C@@H]1C[C@H]2O[C@@](C)([C@@H]1OC)n1c3ccccc3c3c4c(c5c6ccccc6n2c5c31)C(=O)NC4` [staurosporine, reference compound], for which, in the test on PPC-1 cells [1], the “effect of overexpressed FLIP, CrmA or BclXL on anoikis” value is reported as “overexpression of BclXL, but not CrmA, protected”.
For the compound “4-(4-chloro-2-methylphenoxy)-N-hydroxybutanamide [compound 5809354]”, in the test with PPC-1 cells [1], the “effect of overexpressed FLIP, CrmA or BclXL on anoikis” value is given as “attenuated 5809354-mediated anoikis”. Moreover, the “viability in the presence of Fas-activating antibody (CH-11)” value with PPC-1 cells [2] was “decreases in viability”.
